Measured values from the supplement of paper PMC10307832.

How the values were obtained:
Assay in all cases: relative viability (nuclei count vs DMSO), 5 days (fraction); higher = more cells survive
[1] = compound: CS(=O)(=O)c1ccc(-c2cnc(N)c(C(=O)Nc3ccccc3)n2)cc1 [VE-821]
Outline: (§1)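 Acceptance criteria were a control CV below 25% and at least one doubling per plate. Lung cancer cell lines in 1536-well plates got five library-drug doses (not always all listed) √10 apart by pinning and were left 5 days with no medium change. Viability divides treated-well nuclei by vehicle-well nuclei and is the median across plates. Nuclei were counted by MetaXpress from 4× Hoechst images.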

[2] = compound: CS(=O)(=O)c1ccc(C(=O)Nc2ccc(Cl)c(-c3ccccn3)c2)c(Cl)c1 [Vismodegib]
Outline: as §1

[3] = compound: N#CC[C@H](C1CCCC1)n1cc(-c2ncnc3[nH]ccc23)cn1 [Ruxolitinib]
Outline: as §1

[4] = compound: CS(=O)(=O)c1ccc(-c2cnc(N)c(C(=O)Nc3ccccc3)n2)cc1 [VE-821] + Cc1nc(NC(=O)N2CCC[C@H]2C(N)=O)sc1-c1ccnc(C(C)(C)C(F)(F)F)c1 [Alpelisib] (partner 2 µM)
Outline: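 Relative viability divides the nuclei count in treated wells by that in vehicle wells. Lung cancer cell lines were seeded in 1536-well plates, dosed by pin tool the next day, and fixed and stained after 5 days in one step with final 0.05% Triton X-100, 1% formaldehyde and 1 ug/ml Hoechst. Dosing was a single drug or a fixed anchor-drug dose plus five library-drug doses (not always all listed) in √10 steps, and values are medians of duplicate plates imaged at 4×.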

Cell Line	relative viability ([1]; 0.08 µM)	relative viability ([1]; 0.253 µM)	relative viability ([1]; 0.8 µM)	relative viability ([1]; 2.53 µM)	relative viability ([1]; 8 µM)	relative viability ([2]; 0.08 µM)	relative viability ([2]; 0.253 µM)	relative viability ([2]; 0.8 µM)	relative viability ([2]; 2.53 µM)	relative viability ([2]; 8 µM)	relative viability ([3]; 0.253 µM)	relative viability ([3]; 0.8 µM)	relative viability ([3]; 2.53 µM)	relative viability ([3]; 8 µM)	relative viability ([4]; first compound 0.08 µM)	relative viability ([4]; first compound 0.253 µM)	relative viability ([4]; first compound 0.8 µM)	relative viability ([4]; first compound 2.53 µM)	relative viability ([4]; first compound 8 µM)	relative viability ([3]; 0.08 µM)
PC-14	1.06	0.932	0.995	0.969	0.686	0.958	0.959	0.988	0.915	0.952	1.07	1.01	0.865	0.8	1.08	0.863	0.981	0.931	0.936	–
IA-LM	1.02	0.874	0.999	1.06	0.808	0.883	0.963	0.964	0.85	0.876	1.02	1.08	1.05	0.888	0.905	0.475	0.797	1.04	0.738	0.855
NCI-H650	1.04	0.909	1.05	1.1	0.895	0.953	0.895	0.88	0.915	0.815	0.937	1.01	0.854	0.696	1.19	1.25	0.932	1.19	1.1	–
NCI-H1355	1.05	0.919	0.963	1.04	0.604	0.947	0.992	0.904	0.99	0.93	0.962	0.957	0.922	0.918	0.911	0.803	0.562	0.8	0.531	1.07
HOP-62	1.11	0.997	1.02	1.18	1.02	0.998	0.954	0.94	0.96	1	1.04	1.09	1.05	0.972	1.09	0.646	0.723	0.928	0.93	0.976
NCI-H3122	1.02	1.01	0.982	1.01	0.933	0.962	1.01	0.904	0.973	0.92	1.03	1.01	0.868	0.915	0.949	0.746	0.774	0.871	0.78	0.986
NCI-H1437	1.03	0.97	0.988	1.01	0.956	0.951	0.967	1.01	0.964	0.999	1.1	1.08	0.946	0.848	1.02	0.901	0.693	0.993	0.705	1.09
BEN	0.977	1.01	0.849	1.03	0.885	1	1.02	0.891	0.926	1.02	0.938	1.14	0.965	1.07	1.09	1.01	0.877	0.968	0.976	0.992
NCI-H520	1.05	0.992	0.723	1.06	0.67	0.922	0.885	0.927	0.875	1.11	0.749	1.2	0.934	0.951	0.953	1.1	–	0.883	0.784	1.07
NCI-H2087	1.16	0.871	0.958	1.32	1.05	0.946	0.969	0.941	1.09	0.906	0.957	1.12	0.935	0.941	1.18	0.945	1.4	1.06	1.06	1.04
NCI-H2347	1.1	0.968	1.01	1.22	1.14	0.908	0.995	0.949	0.968	1.04	0.984	1.11	1.01	0.942	1.08	0.997	0.916	1.18	0.977	0.949
A549	1.11	0.939	0.927	0.954	0.738	0.964	0.91	0.936	0.915	0.971	0.965	1.11	0.941	0.736	0.995	0.746	0.624	0.872	0.548	0.934
NCI-H838	1.06	0.887	0.902	1.01	0.791	0.906	0.893	0.941	0.947	0.973	0.897	0.832	0.567	0.478	1.1	0.955	0.911	0.966	0.907	0.918
LXF-289	1.06	1.1	1.09	1.06	1.14	1.02	0.989	1.03	0.988	0.902	0.996	0.938	0.944	0.919	1.14	1.06	1.02	1.2	1.18	0.965
LC-2-ad	1.07	0.978	1.05	1.12	0.995	1	0.952	0.939	0.929	0.907	0.971	1.01	0.842	0.665	0.991	0.846	0.926	1.01	0.686	0.779
NCI-H2085	1.03	0.973	0.843	1.14	0.946	0.977	0.995	0.994	0.997	0.937	1.01	1.09	0.901	0.876	1	0.853	0.713	0.984	0.922	1.03
